Laboratory results: patent US5151352A, “Process for producing diterpene compounds” (Kyowa Hakko Kogyo Co., Ltd., priority 1990, dated 1992)
Values after ≈ are worked out from the molar mass of the structure shown.

Legend:
[1] = test system: lymphocytic leukemia p338 tumor cells; experiment: Effect on lymphocytic leukemia (life-prolonging effect); format: in vivo, CDF1 male mice; conditions: i.p., 24 hours after i.p. transplantation
Description: 1×10^6 lymphocytic leukemia p338 tumor cells were intraperitoneally transplanted into CDF1 male mice weighing 22 g (each group having 5 animals). 24 hours after the trans- plantation, 0.2 ml of a solution of UCT4-B in physiological saline or 0.2 ml of physiological saline (the control group) was intraperitoneally administered to the animals.
The results of the test are expressed in terms of T/C (%) calculated by dividing the average survival days of each test group (T) with that of the control group (C).

[2] = Solubility
[3] = test system: Klebsiella pneumoniae ATCC 10031; experiment: Antibacterial activity, agar dilution method (pH 7.0); format: cell-based; conditions: ATCC10031, read-out: minimum growth inhibition concentration (MIC)
Text: (§1) The antibacterial activities of UCT4-B on four bacteria (i.e., Staphylococcus aureus, Enterococcus faecium, Bacillus subtilis, Klebsiella pneumoniae) were examined by the agar dilution method (pH 7.0)[refer to "Biseibutsu Jikken Manyuaru (Manual of The Microbial Experiments)" 80, Kodansha (1986)].
(§2) The results are shown in terms of the minimum growth inhibition concentration (MIC) in Table 2.

[4] = test system: Bacillus subtilis ATCC 10707; experiment: as above; format: cell-based; conditions: ATCC10707, read-out: minimum growth inhibition concentration (MIC)
Text: as §1, §2

[5] = test system: Enterococcus faecium ATCC 10541; experiment: as above; format: cell-based; conditions: ATCC10541, read-out: minimum growth inhibition concentration (MIC)
Text: as §1, §2

[6] = test system: Staphylococcus aureus ATCC 6538P; experiment: as above; format: cell-based; conditions: ATCC6538P, read-out: minimum growth inhibition concentration (MIC)
Text: as §1, §2

[7] = Acute toxicity, single intravenous administration, 14 days survival; conditions: mouse, in vivo, ddy mice, single i.v., Behrens-Karber method
Description: UCT4-B was intravenously administered once to ddy mice weighing about 20 g (each group having 5 animals) and then the survival state of the animals was monitored for 14 days following the administration. Then LD50 of the compound was calculated based on the mortality of mice in each group in accordance with the Behrens-Karber method.

CC1C(O)C(=O)C2(C)C(CO)=CCCC2C1(C)CC(O)C1(C(=O)C=O)CO1 (stereo not shown) [UCT4-B]
Life-prolonging effect (T/C %) ([1]; 3 mg/kg): 124% | Life-prolonging effect (T/C %) ([1]; 6 mg/kg): 131% | Life-prolonging effect (T/C %) ([1]; 12 mg/kg): 127% | Life-prolonging effect (T/C %) ([1]; 25 mg/kg): 137% | Life-prolonging effect (T/C %) ([1]; 50 mg/kg): 141% | Solubility ([2]; acetonitrile): soluble | Solubility ([2]; chloroform): highly soluble | Solubility ([2]; ethyl acetate): highly soluble | Solubility ([2]; hexane): insoluble | Solubility ([2]; methanol): highly soluble | Solubility ([2]; water): soluble | MIC [3]: 2.1 µg/mL (≈ 5.52 µM) | MIC [4]: 8.3 µg/mL (≈ 21.8 µM) | MIC [5]: 4.1 µg/mL (≈ 10.8 µM) | MIC [6]: 4.1 µg/mL (≈ 10.8 µM) | LD50 at 336 h [7]: ≥ 50 mg/kg
